Data taken from PubChem BioAssay (NCI).
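All cell lines were grown in 96-well plates and treated with compound for 48 hours. GI50 marks 50% less growth. TGI denotes the concentration required for complete inhibition of growth.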

How the values were obtained:
Test in all cases: DTP human tumour cell line panel, 48 h
RPMI-8226 leukemia = tested on: RPMI-8226 leukemia
NCI-H226 lung = tested on: NCI-H226 lung
LOX IMVI melanoma = tested on: LOX IMVI melanoma
HCT-116 colon = tested on: HCT-116 colon
SNB-19 CNS = tested on: SNB-19 CNS
U251 CNS = tested on: U251 CNS
SF-268 CNS = tested on: SF-268 CNS
HS 578T breast = tested on: HS 578T breast
MDA-MB-435 = tested on: MDA-MB-435
HOP-92 NSCLC = tested on: HOP-92 NSCLC
OVCAR-5 ovarian = tested on: OVCAR-5 ovarian
SR leukemia = tested on: SR leukemia
CCRF-CEM leukemia = tested on: CCRF-CEM leukemia
K-562 leukemia = tested on: K-562 leukemia
CAKI-1 renal = tested on: CAKI-1 renal
HT29 colon = tested on: HT29 colon
A549 NSCLC = tested on: A549 NSCLC
COLO 205 colon = tested on: COLO 205 colon
UACC-62 melanoma = tested on: UACC-62 melanoma
SF-295 CNS = tested on: SF-295 CNS
OVCAR-4 ovarian = tested on: OVCAR-4 ovarian
PC-3 prostate = tested on: PC-3 prostate
NCI/ADR-RES ovarian = tested on: NCI/ADR-RES ovarian
SK-MEL-5 melanoma = tested on: SK-MEL-5 melanoma
SK-MEL-2 melanoma = tested on: SK-MEL-2 melanoma
SK-OV-3 ovarian = tested on: SK-OV-3 ovarian
SK-MEL-28 melanoma = tested on: SK-MEL-28 melanoma
KM12 colon = tested on: KM12 colon
MCF7 breast = tested on: MCF7 breast
T-47D breast = tested on: T-47D breast
EKVX NSCLC = tested on: EKVX NSCLC
ACHN renal = tested on: ACHN renal
A498 renal = tested on: A498 renal
HL-60(TB) leukemia = tested on: HL-60(TB) leukemia
UACC-257 melanoma = tested on: UACC-257 melanoma
HCC-2998 colon = tested on: HCC-2998 colon
HCT-15 colon = tested on: HCT-15 colon
786-0 renal = tested on: 786-0 renal
SNB-75 CNS = tested on: SNB-75 CNS
IGROV1 ovarian = tested on: IGROV1 ovarian
SW-620 colon = tested on: SW-620 colon
MOLT-4 leukemia = tested on: MOLT-4 leukemia
NCI-H522 lung = tested on: NCI-H522 lung
UO-31 renal = tested on: UO-31 renal
SF-539 CNS = tested on: SF-539 CNS
SN12C renal = tested on: SN12C renal
NCI-H23 lung = tested on: NCI-H23 lung
NCI-H460 lung = tested on: NCI-H460 lung
RXF 393 renal = tested on: RXF 393 renal
OVCAR-3 ovarian = tested on: OVCAR-3 ovarian
M14 melanoma = tested on: M14 melanoma
HOP-62 NSCLC = tested on: HOP-62 NSCLC
OVCAR-8 ovarian = tested on: OVCAR-8 ovarian
DU-145 prostate = tested on: DU-145 prostate
BT-549 breast = tested on: BT-549 breast
MDA-MB-231 breast = tested on: MDA-MB-231 breast

With O=C(Nc1cccc(Cl)c1)c1cccc(NC2=C(Cl)C(=O)N(Cc3ccccc3)C2=O)c1 the GI50 (RPMI-8226 leukemia) was 7.58 µM, the TGI (RPMI-8226 leukemia) was 53.3 µM and the GI50 (NCI-H226 lung) was 22.4 µM. It also gave a TGI (NCI-H226 lung) greater than 100 µM, a GI50 (LOX IMVI melanoma) of 28.3 µM and a TGI (LOX IMVI melanoma) greater than 100 µM. The GI50 (HCT-116 colon) was 10.1 µM, the TGI (HCT-116 colon) was 42.4 µM and the GI50 (SNB-19 CNS) was greater than 100 µM. For the same compound, the TGI (SNB-19 CNS) was greater than 100 µM, the GI50 (U251 CNS) was 43.1 µM and the TGI (U251 CNS) was greater than 100 µM. The GI50 (SF-268 CNS) was 25.5 µM, the TGI (SF-268 CNS) was 94.4 µM and the GI50 (HS 578T breast) was greater than 100 µM. It also gave a TGI (HS 578T breast) greater than 100 µM, a GI50 (MDA-MB-435) of 25.9 µM and a TGI (MDA-MB-435) of 91.3 µM. It also gave a GI50 (HOP-92 NSCLC) of 16.1 µM, a TGI (HOP-92 NSCLC) greater than 100 µM and a GI50 (OVCAR-5 ovarian) greater than 100 µM. For the same compound, the TGI (OVCAR-5 ovarian) was greater than 100 µM, the GI50 (SR leukemia) was 2.32 µM and the TGI (SR leukemia) was 10.5 µM. It also gave a GI50 (CCRF-CEM leukemia) of 7.2 µM, a TGI (CCRF-CEM leukemia) greater than 100 µM and a GI50 (K-562 leukemia) of 0.662 µM. The TGI (K-562 leukemia) was 35.5 µM, the GI50 (CAKI-1 renal) was 15 µM and the TGI (CAKI-1 renal) was 49.1 µM. The GI50 (HT29 colon) was 55.7 µM, the TGI (HT29 colon) was greater than 100 µM and the GI50 (A549 NSCLC) was greater than 100 µM. The TGI (A549 NSCLC) was greater than 100 µM, the GI50 (COLO 205 colon) was greater than 100 µM and the TGI (COLO 205 colon) was greater than 100 µM. The GI50 (UACC-62 melanoma) was 21.1 µM, the TGI (UACC-62 melanoma) was greater than 100 µM and the GI50 (SF-295 CNS) was 44.1 µM. For the same compound, the TGI (SF-295 CNS) was greater than 100 µM, the GI50 (OVCAR-4 ovarian) was 68.5 µM and the TGI (OVCAR-4 ovarian) was greater than 100 µM. The GI50 (PC-3 prostate) was 21.9 µM, the TGI (PC-3 prostate) was 93.1 µM and the GI50 (NCI/ADR-RES ovarian) was 89.8 µM. It also gave a TGI (NCI/ADR-RES ovarian) greater than 100 µM, a GI50 (SK-MEL-5 melanoma) of 34 µM and a TGI (SK-MEL-5 melanoma) greater than 100 µM. The GI50 (SK-MEL-2 melanoma) was 26.7 µM, the TGI (SK-MEL-2 melanoma) was 68.6 µM and the GI50 (SK-OV-3 ovarian) was greater than 100 µM. It also gave a TGI (SK-OV-3 ovarian) greater than 100 µM, a GI50 (SK-MEL-28 melanoma) greater than 100 µM and a TGI (SK-MEL-28 melanoma) greater than 100 µM. It also gave a GI50 (KM12 colon) of 28.2 µM, a TGI (KM12 colon) of 80.4 µM and a GI50 (MCF7 breast) of 25.6 µM. The TGI (MCF7 breast) was 83.7 µM, the GI50 (T-47D breast) was greater than 100 µM and the TGI (T-47D breast) was greater than 100 µM. It also gave a GI50 (EKVX NSCLC) greater than 100 µM, a TGI (EKVX NSCLC) greater than 100 µM and a GI50 (ACHN renal) of 87.4 µM. It also gave a TGI (ACHN renal) greater than 100 µM, a GI50 (A498 renal) greater than 100 µM and a TGI (A498 renal) greater than 100 µM. It also gave a GI50 (HL-60(TB) leukemia) of 12.6 µM, a TGI (HL-60(TB) leukemia) of 31.8 µM and a GI50 (UACC-257 melanoma) of 72.5 µM. For the same compound, the TGI (UACC-257 melanoma) was greater than 100 µM, the GI50 (HCC-2998 colon) was 19.8 µM and the TGI (HCC-2998 colon) was 62.4 µM. For the same compound, the GI50 (HCT-15 colon) was 30 µM, the TGI (HCT-15 colon) was greater than 100 µM and the GI50 (786-0 renal) was 35.8 µM. For the same compound, the TGI (786-0 renal) was greater than 100 µM, the GI50 (SNB-75 CNS) was greater than 100 µM and the TGI (SNB-75 CNS) was greater than 100 µM. For the same compound, the GI50 (IGROV1 ovarian) was 3.12 µM, the TGI (IGROV1 ovarian) was 9.81 µM and the GI50 (SW-620 colon) was 58.6 µM. The TGI (SW-620 colon) was greater than 100 µM, the GI50 (MOLT-4 leukemia) was 22.2 µM and the TGI (MOLT-4 leukemia) was greater than 100 µM. The GI50 (NCI-H522 lung) was 18.8 µM, the TGI (NCI-H522 lung) was 53 µM and the GI50 (UO-31 renal) was 36.4 µM. It also gave a TGI (UO-31 renal) greater than 100 µM, a GI50 (SF-539 CNS) of 81.8 µM and a TGI (SF-539 CNS) greater than 100 µM. It also gave a GI50 (SN12C renal) of 2.62 µM, a TGI (SN12C renal) of 56.9 µM and a GI50 (NCI-H23 lung) greater than 100 µM. For the same compound, the TGI (NCI-H23 lung) was greater than 100 µM, the GI50 (NCI-H460 lung) was 37 µM and the TGI (NCI-H460 lung) was greater than 100 µM. The GI50 (RXF 393 renal) was 85 µM, the TGI (RXF 393 renal) was greater than 100 µM and the GI50 (OVCAR-3 ovarian) was 24.3 µM. The TGI (OVCAR-3 ovarian) was greater than 100 µM, the GI50 (M14 melanoma) was 18.3 µM and the TGI (M14 melanoma) was 67.3 µM. The GI50 (HOP-62 NSCLC) was 0.84 µM, the TGI (HOP-62 NSCLC) was 42.8 µM and the GI50 (OVCAR-8 ovarian) was 56.4 µM. The TGI (OVCAR-8 ovarian) was greater than 100 µM, the GI50 (DU-145 prostate) was 46 µM and the TGI (DU-145 prostate) was greater than 100 µM. For the same compound, the GI50 (BT-549 breast) was 36.9 µM, the TGI (BT-549 breast) was greater than 100 µM and the GI50 (MDA-MB-231 breast) was 4.54 µM. It also gave a TGI (MDA-MB-231 breast) greater than 100 µM.
